Assay results taken from publication PMC12888861, “Antibacterial activity of enmetazobactam against Acinetobacter spp.: a molecular dissection of mechanism of action and resistance determinants” (Antimicrobial Agents and Chemotherapy, 2025).
In brackets after ≈: the same amount, converted by molar mass.

Test system: carbapenem-resistant A. baumannii (CRAB) isolates (n = 67)
Test: MIC, broth microdilution (EUCAST), carbapenem-resistant A. baumannii isolates
Type: cell-based, Acinetobacter baumannii
Conditions: Acinetobacter baumannii
Excerpt: The bacterial strains used in this study comprised 208 clinical isolates from the Spanish National Acinetobacter spp. 2020 Multicenter Collection, which was previously characterized in detail by our research group, including whole-genome sequencing, phylogenetics studies, clonal dynamics, and resistance mechanisms ([2], [29]). Additionally, a collection of A. baumannii ATCC 17978 transformants coding the blaOXA-23, blaOXA-24/40, blaOXA-51, blaOXA-58, blaOXA-143, and blaOXA-201 genes, previously constructed and described by our group ([30]), was used to determine the activity of enmetazobactam against strains carrying the main CHDLs of A. baumannii.
The antimicrobial susceptibility of the 208 Acinetobacter spp. isolates was assessed using the broth microdilution method, as described in the European Committee on Antimicrobial Susceptibility Testing (EUCAST) v.15 guidelines (http://www.eucast.org/clinical_breakpoints). […] MICs for enmetazobactam alone were assessed as well. […] Subsequently, MIC testing was also conducted with a collection of A. baumannii ATCC 17978 transformants expressing clinically relevant OXA-like carbapenemase genes.
The A. baumannii ATCC 19606 strain was used as the reference strain in all susceptibility experiments, in duplicate assays. Antibiotics were purchased from Sigma-Aldrich, except enmetazobactam and durlobactam, which were obtained from Advanz Pharma and MedChemExpress, respectively.

Work on `C[n+]1ccn(C[C@@]2(C)[C@H](C(=O)[O-])N3C(=O)C[C@H]3S2(=O)=O)n1` [enmetazobactam] yielded an MIC (MBC set, isolate Ab4, A. baumannii ST 2, ADC-30, OXA-66, ISAba1-OXA-23) of 64 mg/L (≈ 204 µM), an MIC (MBC set, isolate Ab6, A. baumannii ST 2, ADC-30, OXA-66, ISAba1-OXA-23, TEM-12) of 64 mg/L (≈ 204 µM) and an MIC (MBC set, isolate Ab9, A. baumannii ST 2, ADC-30, OXA-66, OXA-23, TEM-12) of 8 mg/L (≈ 25.5 µM). For the same compound, the MIC (isolate Ab56, ST 1, ADC-75, OXA-69, OXA-23, ETZ fixed 8 mg/L in combinations) was 64 mg/L, the MIC (isolate Ab83, ST 25, ADC-5, OXA-64, OXA-23, DUR fixed at 4 mg/L in combinations) was 64 mg/L and the MIC (isolate Ab83, ST 25, ADC-5, OXA-64, OXA-23, ETZ fixed 8 mg/L in combinations) was 64 mg/L. The MIC (isolate Ab109, ST 1, ADC-75, OXA-69, OXA-23, DUR fixed at 4 mg/L in combinations) was 32 mg/L, the MIC (isolate Ab109, ST 1, ADC-75, OXA-69, OXA-23, ETZ fixed 8 mg/L in combinations) was 32 mg/L and the MIC (isolate Ab133, ST 2, ADC-30, OXA-66, OXA-58, TEM-12, DUR fixed at 4 mg/L in combinations) was 8 mg/L. For the same compound, the MIC (isolate Ab133, ST 2, ADC-30, OXA-66, OXA-58, TEM-12, ETZ fixed 8 mg/L in combinations) was 8 mg/L, the MIC (isolate Ab134, ST 2, ADC-30, OXA-66, OXA-58, TEM-12, DUR fixed at 4 mg/L in combinations) was 8 mg/L and the MIC (isolate Ab134, ST 2, ADC-30, OXA-66, OXA-58, TEM-12, ETZ fixed 8 mg/L in combinations) was 8 mg/L. It also gave an MIC (isolate Ab137, ST 85, ADC-2, OXA-94, OXA-23, DUR fixed at 4 mg/L in combinations) of 64 mg/L, an MIC (isolate Ab137, ST 85, ADC-2, OXA-94, OXA-23, ETZ fixed 8 mg/L in combinations) of 64 mg/L and an MIC (isolate Ab138, ST 745, ADC-30, OXA-66, OXA-58, DUR fixed at 4 mg/L in combinations) of 64 mg/L. For the same compound, the MIC (isolate Ab138, ST 745, ADC-30, OXA-66, OXA-58, ETZ fixed 8 mg/L in combinations) was 64 mg/L, the MIC (isolate Ab140, ST 85, ADC-2, OXA-94, OXA-23, DUR fixed at 4 mg/L in combinations) was 64 mg/L and the MIC (isolate Ab140, ST 85, ADC-2, OXA-94, OXA-23, ETZ fixed 8 mg/L in combinations) was 64 mg/L. For the same compound, the MIC (isolate Ab141, ST 745, ADC-30, OXA-66, OXA-58, DUR fixed at 4 mg/L in combinations) was 8 mg/L, the MIC (isolate Ab141, ST 745, ADC-30, OXA-66, OXA-58, ETZ fixed 8 mg/L in combinations) was 8 mg/L and the MIC (isolate Ab144, ST 745, ADC-30, OXA-66, OXA-58, DUR fixed at 4 mg/L in combinations) was 32 mg/L. It also gave an MIC (isolate Ab144, ST 745, ADC-30, OXA-66, OXA-58, ETZ fixed 8 mg/L in combinations) of 32 mg/L, an MIC (isolate Ab169, ST 2, ADC-30, OXA-66, OXA-23, DUR fixed at 4 mg/L in combinations) of 32 mg/L and an MIC (isolate Ab169, ST 2, ADC-30, OXA-66, OXA-23, ETZ fixed 8 mg/L in combinations) of 64 mg/L. For the same compound, the MIC (isolate Ab171, ST 2, ADC-30, OXA-66, OXA-23, DUR fixed at 4 mg/L in combinations) was 32 mg/L, the MIC (isolate Ab171, ST 2, ADC-30, OXA-66, OXA-23, ETZ fixed 8 mg/L in combinations) was 64 mg/L and the MIC (isolate Ab173, ST 2, ISAba1-ADC-30, OXA-66, OXA-23, DUR fixed at 4 mg/L in combinations) was 64 mg/L. It also gave an MIC (isolate Ab173, ST 2, ISAba1-ADC-30, OXA-66, OXA-23, ETZ fixed 8 mg/L in combinations) of 64 mg/L, an MIC (isolate Ab174, ST 2, ADC-30, OXA-66, OXA-23, DUR fixed at 4 mg/L in combinations) of 64 mg/L and an MIC (isolate Ab174, ST 2, ADC-30, OXA-66, OXA-23, ETZ fixed 8 mg/L in combinations) of 64 mg/L. For the same compound, the MIC (isolate Ab179, ST 2, ADC-30, OXA-66, OXA-23, DUR fixed at 4 mg/L in combinations) was 64 mg/L, the MIC (isolate Ab179, ST 2, ADC-30, OXA-66, OXA-23, ETZ fixed 8 mg/L in combinations) was 64 mg/L and the MIC (isolate Ab180, ST 2, ADC-30, OXA-66, OXA-24/40, DUR fixed at 4 mg/L in combinations) was 32 mg/L. The MIC (isolate Ab180, ST 2, ADC-30, OXA-66, OXA-24/40, ETZ fixed 8 mg/L in combinations) was 32 mg/L, the MIC (isolate Ab181, ST 2, ADC-30, OXA-66, OXA-23, DUR fixed at 4 mg/L in combinations) was 32 mg/L and the MIC (isolate Ab181, ST 2, ADC-30, OXA-66, OXA-23, ETZ fixed 8 mg/L in combinations) was 32 mg/L. It also gave an MIC (isolate Ab182, ST 2, ADC-30, OXA-66, OXA-23, DUR fixed at 4 mg/L in combinations) of 16 mg/L, an MIC (isolate Ab182, ST 2, ADC-30, OXA-66, OXA-23, ETZ fixed 8 mg/L in combinations) of 16 mg/L and an MIC (isolate Ab183, ST 2, ADC-30, OXA-66, OXA-23, DUR fixed at 4 mg/L in combinations) of 32 mg/L. It also gave an MIC (isolate Ab183, ST 2, ADC-30, OXA-66, OXA-23, ETZ fixed 8 mg/L in combinations) of 32 mg/L and an MIC (isolate Ab184, ST 2, ADC-30, OXA-66, OXA-23, DUR fixed at 4 mg/L in combinations) of 32 mg/L.
